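Cells were grown in 96-well plates and exposed to each compound for 48 hours at five concentrations; endpoints were interpolated linearly between bracketing concentrations, or set to the highest concentration if not reached. At the GI50, growth is halved.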 Calls of active or inactive are those of the source. Cut-off read from the data, not from the text of the source: active = GI50 up to about 1.1 µM and inactive = higher.
How the values were obtained:
Assay in all cases: NCI-60 cell line screen, 48 h
SK-OV-3 = tested on: SK-OV-3
SF-268 = tested on: SF-268
UACC-257 = tested on: UACC-257
HL-60 = tested on: HL-60
SN12C = tested on: SN12C
KM12 = tested on: KM12
HT-29 = tested on: HT-29
SF-295 = tested on: SF-295
SR = tested on: SR
NCI-H460 = tested on: NCI-H460
HOP-62 = tested on: HOP-62
LOX IMVI = tested on: LOX IMVI
HCT-116 = tested on: HCT-116
OVCAR-4 = tested on: OVCAR-4
RXF 393 = tested on: RXF 393
HCC 2998 = tested on: HCC 2998
IGROV-1 = tested on: IGROV-1
SNB-19 = tested on: SNB-19
UACC-62 = tested on: UACC-62

Measured: GI50

CSc1nc2c(nc(N)n2C2OCC(O)C(O)C2O)c(=O)n1C (stereo not drawn)
inactive: SK-OV-3 > 100 µM | SF-268 > 100 µM | UACC-257 > 100 µM | HL-60 > 100 µM | SN12C > 100 µM | KM12 > 100 µM | HT-29 > 100 µM | SF-295 > 100 µM | SR > 100 µM | NCI-H460 > 100 µM | HOP-62 > 100 µM | LOX IMVI > 100 µM | HCT-116 > 100 µM | OVCAR-4 > 100 µM | RXF 393 > 100 µM | HCC 2998 > 100 µM | IGROV-1 > 100 µM | SNB-19 > 100 µM | UACC-62 > 100 µM

COc1ccccc1NC(=O)c1nc2ccc([N+](=O)[O-])cc2nc1C
inactive: SK-OV-3 > 100 µM | SF-268 > 100 µM | UACC-257 > 100 µM | SN12C > 100 µM | KM12 > 100 µM | HT-29 > 100 µM | NCI-H460 > 100 µM | HOP-62 97.1 µM | LOX IMVI > 100 µM | HCT-116 > 100 µM | OVCAR-4 > 100 µM | HCC 2998 > 100 µM | IGROV-1 > 100 µM | SNB-19 > 100 µM | UACC-62 > 100 µM

O=C(Nc1cc(Cl)c(Cl)cc1Cl)C(=O)C(C(=O)c1ccc2ccccc2c1)C1OC(=O)c2ccccc21 (stereo not drawn)
inactive: SK-OV-3 60.4 µM | SF-268 > 10 µM | UACC-257 14.4 µM | HL-60 13.2 µM | SN12C 18.2 µM | KM12 14.6 µM | HT-29 18.2 µM | SF-295 6.59 µM | SR 4.66 µM | NCI-H460 10.4 µM | HOP-62 16.1 µM | LOX IMVI 15.5 µM | HCT-116 11 µM | OVCAR-4 > 10 µM | RXF 393 3.95 µM | IGROV-1 16.3 µM | SNB-19 11.6 µM | UACC-62 12.1 µM

Cc1ccc(S(=O)(=O)c2c(N)c3nccn3c3nc4ccccc4nc23)cc1
inactive: SK-OV-3 > 100 µM | SF-268 > 100 µM | UACC-257 > 100 µM | HL-60 > 100 µM | SN12C > 100 µM | KM12 > 100 µM | SR > 100 µM | NCI-H460 > 100 µM | HOP-62 81.7 µM | LOX IMVI > 100 µM | HCT-116 > 100 µM | OVCAR-4 > 100 µM | HCC 2998 > 100 µM | IGROV-1 13.5 µM | SNB-19 > 100 µM | UACC-62 20.4 µM

Source: ChEMBL document CHEMBL1201862, “PubChem BioAssay data set” (2004)
